Measurements published in patent US5760041A, “4-aminoquinazoline EGFR Inhibitors” (American Cyanamid Company, priority 1997, dated 1998).
Where two headings read alike, the source gives them in different places.

What was measured:
[1] = tested on: human epidermoid tumors (A431); assay: In vivo inhibition of the growth of human epidermoid tumors (A431) in mice; conditions: for inhibition of tumor growth in vivo (in words): summary of Tables 4-7
Description: BALB/c nu/nu female mice (Charles River, Wilmington, Mass.) were used in the in vivo standard pharmacological test procedures. […] When tumors attained a mass of between 100 and 150 mg, the mice were randomized into treatment groups (day zero). Mice were treated IP once a day either on days 1, 5, and 9 or on days 1 through 10 post staging with doses of either 80, 40 or 20 mg/kg/dose of the compound to be evaluated in 0.2% Klucel. Control animals received no drug. Tumor mass was determined every 7 days [(length×width^2)/2] for 28 days post staging. Relative tumor growth (Mean tumor mass on day 7, 14, 21, and 28 divided by the mean tumor mass on day zero) is determined for each treatment group. The % T/C (Tumor/Control) is determined by dividing the relative tumor growth of the treated group by the relative tumor growth of the placebo group and multiplying by 100.

NHEK cells = assay: Inhibition of cell growth, [3H]-thymidine incorporation, NHEK; type: cell-based; conditions: Homo sapiens, read-out: IC50, NHEK
Description: (§1) Representative compounds of this invention were evaluated for their ability to inhibit the growth of the cell lines described below in vitro. The inhibition is quantitated by measuring the decrease in the incorporation of radio-labeled thymidine when the cells are grown in the presence of the inhibitor. A431 and SKBR3 cell lines are obtained from American Type Culture Collection, Rockville, Md. […] NHEK cells are obtained from Clonetics (San Diego, Calif.). Cells were routinely grown in a humidified incubator in 5% CO2 in air.
(§2) Cells were seeded at 10,000 cells/well in 96 well plates in complete media and allowed to grow to log phase. […] After overnight incubation in low serum (or EGF lacking) media, the compounds to be evaluated were added and cells remained in the presence of compounds for 48 to 72 hours. Media with test compound was then removed and complete media was added back. The cells were allowed to grow for 18 hours. This is followed by incubation in [^3 H]thymidine (1mCi/ml in serum/EGF media) for 4 hours. Cells were lysed in 0.5M NaOH for at least 30 min at 37° C. and radioactivity analyzed.
(§3) The cell growth inhibition data is provided below in TABLE 3. […] The % inhibition of the compound evaluated was determined for at least three different concentrations and the IC50 value evaluated from the dose response curve.
(§4) CPM(control) is in units of counts per minute and is a number expressing the amount of [^3 H]thymidine incorporated onto the DNA when cells are grown in the absence of test compound as measured by liquid scintillation counting.

SKBR3 cells = assay: Inhibition of cell growth, [3H]-thymidine incorporation, SKBR3; type: cell-based; conditions: Homo sapiens
Description: Representative compounds of this invention were evaluated for their ability to inhibit the growth of the cell lines described below in vitro. The inhibition is quantitated by measuring the decrease in the incorporation of radio-labeled thymidine when the cells are grown in the presence of the inhibitor. A431 and SKBR3 cell lines are obtained from American Type Culture Collection, Rockville, Md. […] NHEK cells are obtained from Clonetics (San Diego, Calif.). Cells were routinely grown in a humidified incubator in 5% CO2 in air. […] Cells were seeded at 10,000 cells/well in 96 well plates in complete media and allowed to grow to log phase. […] After overnight incubation in low serum (or EGF lacking) media, the compounds to be evaluated were added and cells remained in the presence of compounds for 48 to 72 hours. Media with test compound was then removed and complete media was added back. The cells were allowed to grow for 18 hours. This is followed by incubation in [^3 H]thymidine (1mCi/ml in serum/EGF media) for 4 hours. Cells were lysed in 0.5M NaOH for at least 30 min at 37° C. and radioactivity analyzed. The cell growth inhibition data is provided below in TABLE 3. […] The % inhibition of the compound evaluated was determined for at least three different concentrations and the IC50 value evaluated from the dose response curve. […] CPM(control) is in units of counts per minute and is a number expressing the amount of [^3 H]thymidine incorporated onto the DNA when cells are grown in the absence of test compound as measured by liquid scintillation counting.

Neu-3T3 cells = assay: Inhibition of cell growth, [3H]-thymidine incorporation, Neu-3T3; type: cell-based; conditions: Mus musculus, read-out: IC50, NEU-3T3
Description: as §1, §2, §3, §4

[2] = molecular target: T1, Epidermal Growth Factor Receptor Kinase (EGF-R) (Homo sapiens, UniProt P00533); assay: Inhibition of Epidermal Growth Factor Receptor Kinase (EGF-R), phosphorylation of peptide substrate RR-SRC; type: biochemical; conditions: A431 membrane extract; average of number of tests
T1 construct: The enzyme was obtained as a membrane extract of A431 cells; (cells); host or cells: A431 cells (membrane extract)
Description: The % inhibition of the test compound was determined for at least three different concentrations and the IC50 value was evaluated from the dose response curve.
The CPM values were corrected for the background counts produced by ATP in the absence of the enzymatic reaction.

[3] = Table 6, 20 mg/kg IP, day 1 through 10
[4] = Table 6, 20 mg/kg IP, day 1 through 10, * p < 0.01
[5] = Table 6, 80 mg/kg IP, days 1, 5, and 9
[6] = Table 6, 80 mg/kg IP, days 1, 5, and 9, * p < 0.01
[7] = Table 7, 20 mg/kg IP, days through 10
[8] = Table 7, 80 mg/kg IP, days 1, 5, and 9
[9] = Table 4, 20 mg/kg/dose IP, days 1, 5, 9
[10] = Table 4, 20 mg/kg/dose IP, days 1 through 10
[11] = Table 4, 40 mg/kg/dose IP, days 1, 5, 9
[12] = Table 4, 80 mg/kg/dose IP, days 1, 5, 9
[13] = Table 5, 20 mg/kg/dose IP, days 1 through 15
[14] = Table 7, 80 mg/kg IP, days 1, 5, and 9, * p < 0.01

T1 sequence (P00533 25-1210): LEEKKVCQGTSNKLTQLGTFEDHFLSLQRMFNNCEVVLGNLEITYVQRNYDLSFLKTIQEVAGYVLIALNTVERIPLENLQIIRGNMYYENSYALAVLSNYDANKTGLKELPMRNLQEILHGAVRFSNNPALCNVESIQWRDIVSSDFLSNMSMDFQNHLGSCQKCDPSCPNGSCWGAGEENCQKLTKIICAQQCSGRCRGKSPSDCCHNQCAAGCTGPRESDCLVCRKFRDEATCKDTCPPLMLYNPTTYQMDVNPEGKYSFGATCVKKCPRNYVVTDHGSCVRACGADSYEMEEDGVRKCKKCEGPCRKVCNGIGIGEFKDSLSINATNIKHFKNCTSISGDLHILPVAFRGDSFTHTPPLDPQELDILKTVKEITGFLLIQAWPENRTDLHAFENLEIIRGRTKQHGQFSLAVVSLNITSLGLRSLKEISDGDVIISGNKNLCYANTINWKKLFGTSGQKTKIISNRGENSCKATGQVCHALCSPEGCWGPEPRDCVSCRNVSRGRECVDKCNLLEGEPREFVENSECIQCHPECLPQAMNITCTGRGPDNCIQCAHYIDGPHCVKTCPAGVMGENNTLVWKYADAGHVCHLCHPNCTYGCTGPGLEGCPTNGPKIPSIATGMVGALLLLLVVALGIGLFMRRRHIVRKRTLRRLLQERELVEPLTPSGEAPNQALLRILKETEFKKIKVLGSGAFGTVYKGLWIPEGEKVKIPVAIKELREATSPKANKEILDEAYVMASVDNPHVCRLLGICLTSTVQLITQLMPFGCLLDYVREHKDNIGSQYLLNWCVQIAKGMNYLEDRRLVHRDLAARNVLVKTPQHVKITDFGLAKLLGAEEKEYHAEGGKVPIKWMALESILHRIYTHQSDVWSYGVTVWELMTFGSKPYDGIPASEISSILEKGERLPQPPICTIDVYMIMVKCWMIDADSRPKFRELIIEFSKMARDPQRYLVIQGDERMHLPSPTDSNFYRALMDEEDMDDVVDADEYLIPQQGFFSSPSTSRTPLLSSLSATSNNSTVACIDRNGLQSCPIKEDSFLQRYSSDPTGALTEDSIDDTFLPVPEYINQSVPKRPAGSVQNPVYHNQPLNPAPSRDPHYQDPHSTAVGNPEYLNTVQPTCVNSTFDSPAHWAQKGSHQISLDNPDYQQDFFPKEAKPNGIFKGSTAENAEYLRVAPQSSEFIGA
T1 sequence (P01133 971-1023 partner limits assumed): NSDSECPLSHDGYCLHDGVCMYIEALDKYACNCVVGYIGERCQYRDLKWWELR

C=CC(=O)Nc1cc2c(Nc3cccc(C)c3)ncnc2cc1F [Comparator A, N-[4-[(3-methylphenyl)amino]-6-quinazolinyl]-7-fluoro-2-propenamide, reference compound]
activity relative to the compound of Example 9 (in words) ([1]; A431 tumors in mice, Tables 6 and 7): substantially less active than the compound of Example 9
inhibition of tumor growth in vivo (in words) ([1]; A431 tumors in mice): failed to significantly reduce tumor growth at both doses tested
RTG Day 7 [1, 3]: 4.82
RTG Day 14 [1, 3]: 7.36
RTG Day 21 [1, 3]: 8.75
S/T (No. Survivors/No. Treated on Day +21) [1, 3]: 9/10
% T/C Day 7 [1, 4]: 87%
% T/C Day 14 [1, 4]: 63%
% T/C Day 21 [1, 4]: 56%
RTG Day 7 [1, 5]: 3.39
RTG Day 14 [1, 5]: 5.60
RTG Day 21 [1, 5]: 7.68
S/T (No. Survivors/No. Treated on Day +21) [1, 5]: 10/10
% T/C Day 7 [1, 6]: 61%
% T/C Day 14 [1, 6]: 48%
% T/C Day 21 [1, 6]: 48%

CCCC(=O)Nc1ccc2ncnc(Nc3cccc(Br)c3)c2c1 [Comparator B, N-[4-[(3-bromophenyl)amino]-6-quinazolinyl]-butanamide, reference compound]
inhibition of tumor growth in vivo (in words) ([1]; A431 tumors in mice): failed to significantly reduce tumor growth at both doses tested
RTG Day 7 [1, 7]: 2.90
RTG Day 14 [1, 7]: 4.19
RTG Day 21 [1, 7]: 5.62
RTG Day 28 [1, 7]: 8.04
S/T (No. Survivors/No. Treated on Day +28) [1, 7]: 5/5
RTG Day 7 [1, 8]: 3.37
RTG Day 14 [1, 8]: 5.43
RTG Day 21 [1, 8]: 6.21
RTG Day 28 [1, 8]: 10.26
S/T (No. Survivors/No. Treated on Day +28) [1, 8]: 5/5

O=C(O)/C=C\C(=O)Nc1ccc2ncnc(Nc3cccc(Br)c3)c2c1 [Example 4, 4-[[4-[(3-Bromophenyl)amino]-6-quinazolinyl]amino]-4-oxo-(Z)-2-butenoic acid]
IC50 (NHEK cells): 0.17 µM

CC(C)=CC(=O)Nc1ccc2ncnc(Nc3cccc(Br)c3)c2c1 [Example 6, N-[4-[(3-Bromophenyl)amino]-6-quinazolinyl]-3-methyl-2-butenamide]
IC50 (SKBR3 cells; SK-BR-3, 48 to 72 hours with compound, read-out: IC50, SKBR3): > 50 µM
IC50 (Neu-3T3 cells; 48 to 72 hours with compound): > 50 µM

CC#CC(=O)Nc1ccc2ncnc(Nc3cccc(Br)c3)c2c1 [Example 9, N-[4-[(3-Bromophenyl)amino]-6-quinazolinyl]-2-butynamide]
inhibition of tumor growth in vivo (in words) ([1]; A431 tumors in mice): significantly (p<0.01) inhibited human epidermoid tumor growth in vivo
% T/C Day 7 [1, 9]: 47%
% T/C Day 16 [1, 9]: 34%
% T/C Day 21 [1, 9]: 38%
% T/C Day 28 [1, 9]: 41%
RTG Day 7 [1, 9]: 1.72
RTG Day 16 [1, 9]: 2.69
RTG Day 21 [1, 9]: 4.33
RTG Day 28 [1, 9]: 6.18
S/T (No. Survivors/No. Treated on Day +28) [1, 9]: 5/5
% T/C Day 7 [1, 10]: 20%
% T/C Day 16 [1, 10]: 13%
% T/C Day 21 [1, 10]: 11%
% T/C Day 28 [1, 10]: 17%
RTG Day 7 [1, 10]: 0.75
RTG Day 16 [1, 10]: 1.01
RTG Day 21 [1, 10]: 1.25
RTG Day 28 [1, 10]: 2.53
S/T (No. Survivors/No. Treated on Day +28) [1, 10]: 5/5
% T/C Day 7 [1, 11]: 40%
% T/C Day 16 [1, 11]: 28%
% T/C Day 21 [1, 11]: 27%
% T/C Day 28 [1, 11]: 27%
RTG Day 7 [1, 11]: 1.48
RTG Day 16 [1, 11]: 2.23
RTG Day 21 [1, 11]: 3.05
RTG Day 28 [1, 11]: 4.04
S/T (No. Survivors/No. Treated on Day +28) [1, 11]: 5/5
% T/C Day 7 [1, 12]: 18%
% T/C Day 16 [1, 12]: 11%
% T/C Day 21 [1, 12]: 9%
% T/C Day 28 [1, 12]: 9%
RTG Day 7 [1, 12]: 0.71
RTG Day 16 [1, 12]: 0.91
RTG Day 21 [1, 12]: 1.07
RTG Day 28 [1, 12]: 1.36
S/T (No. Survivors/No. Treated on Day +28) [1, 12]: 5/5
% T/C Day 7 [1, 13]: 35%
% T/C Day 14 [1, 13]: 22%
% T/C Day 21 [1, 13]: 19%
% T/C Day 28 [1, 13]: 22%
RTG Day 7 [1, 13]: 1.11
RTG Day 14 [1, 13]: 1.26
RTG Day 21 [1, 13]: 1.51
RTG Day 28 [1, 13]: 2.55
S/T (No. Survivors/No. Treated on Day +28) [1, 13]: 14/15
RTG Day 7 [1, 3]: 0.79
RTG Day 14 [1, 3]: 1.39
RTG Day 21 [1, 3]: 2.55
S/T (No. Survivors/No. Treated on Day +21) [1, 3]: 10/10
% T/C Day 7 [1, 4]: 14%
% T/C Day 14 [1, 4]: 12%
% T/C Day 21 [1, 4]: 16%
RTG Day 7 [1, 5]: 1.25
RTG Day 14 [1, 5]: 2.50
RTG Day 21 [1, 5]: 3.77
S/T (No. Survivors/No. Treated on Day +21) [1, 5]: 10/10
% T/C Day 7 [1, 6]: 18%
% T/C Day 14 [1, 6]: 21%
% T/C Day 21 [1, 6]: 24%
RTG Day 7 [1, 8]: 0.89
RTG Day 14 [1, 8]: 1.50
RTG Day 21 [1, 8]: 2.44
RTG Day 28 [1, 8]: 3.45
S/T (No. Survivors/No. Treated on Day +28) [1, 8]: 5/5
% T/C Day 7 [1, 14]: 25%
% T/C Day 14 [1, 14]: 27%
% T/C Day 21 [1, 14]: 42%
% T/C Day 28 [1, 14]: 45%
IC50 (NHEK cells): 0.002 µM
IC50 (SKBR3 cells; SK-BR-3, read-out: IC50, SKBR3): 1.06 µM

O=C(O)/C=C/C(=O)Nc1ccc2ncnc(Nc3cccc(Br)c3)c2c1 [Example 10, 4-[[4-[(3-Bromophenyl)amino]-6-quinazolinyl]amino]-4-oxo-(E)-2-butenoic acid]
IC50 (Neu-3T3 cells): 15 µM

O=C(C#Cc1ccccc1)Nc1ccc2ncnc(Nc3cccc(Br)c3)c2c1 [Example 14, N-[4-[(3-bromophenyl)amino]-6-quinazolinyl]-(3-phenyl-2-propynamide)]
IC50 [2]: 1 µM

COc1cc2ncnc(Nc3cccc(Br)c3)c2cc1OC [N-(3-bromophenyl)-6,7-dimethoxy-4-quinazolinamine, reference compound]
inhibition of tumor growth in vivo (in words) ([1]; A431 tumors in mice): devoid of antineoplastic activity
% T/C Day 7 [1, 13]: 95%
% T/C Day 14 [1, 13]: 116%
% T/C Day 21 [1, 13]: 128%
% T/C Day 28 [1, 13]: 140%
RTG Day 7 [1, 13]: 3.03
RTG Day 14 [1, 13]: 6.58
RTG Day 21 [1, 13]: 10.5
RTG Day 28 [1, 13]: 14.47
S/T (No. Survivors/No. Treated on Day +28) [1, 13]: 15/15
